Assay results from patent US6482586B1 (priority 1996, dated 2002).
Like-named read-outs stand apart in the source and are kept apart here.

Assays:
XF-498 cells [1] = test: Cell sensitization to VT by butyrate treatment; format: cell-based, human; conditions: for effect on XF-498 cell sensitivity to VT1 (in words): cells cultured in 2 mM propionate or capronate
Procedure: Semiconfluent cells in microtiter plates were incubated in triplicates with ten fold VT binding domain dilutions and remaining cells after 72 hr were quantitated by staining with 0.1% crystal violet and measuring the optical density at 570 nm using a microtiter plate reader (31).
(§1) XF-498 astrocytoma, ovarian tumour and vero cell lines were cultured in media containing 2 mM sodium butyrate (or propionate or capronate for astrocytoma cells).

XF-498 cells [2] = test: Morphology and growth of treated XF-498 cells; format: cell-based, human; conditions: for effect on morphology of XF-498 cells: compound alone in culture medium
Procedure: as §1
(§2) PPMP(1-phenyl-2-hexadecanoylamino-3-morpholino-1-propanol, Matreya Inc. , Pleasant Gap, Pa.) is a potent inhibitor of glucosylceramide synthesis (36) and thereby prevents the synthesis of most glycolipids. Experiments extablished that 27 μM PPMP was able to inhibit glycosphingolipid synthesis without inducing cell death. XF-498 astrocytoma and vero cells were then incubated at 37° C. with 27 μM PPMP in the presence and absence of 2 mM butyrate for 6-7 days.

Gb3 in XF-498 cells = format: cell-based, human
Procedure: After trypsinization, cells (˜1×10^6) were washed with PBS three times, resuspended in a minimum volume, and extracted with 20 volumes of chloroform/methanol (C/M) 2:1 by vol. The extract was partitioned against water and the lower phase partitioned again against theoretical upper phase. The combined lower phase was then evaporated, saponified with 1 N NaOH in methanol and glycolipids reextracted as above . The dried lower phase was dissolved in CM 98:2 and separated by silica chromatography(32). The column was washed extensively with chloroform and glycolipid eluted in acetone/methanol (9:1 by vol.). Gb3 present was detected by tlc overlay binding with VT binding domain1 (16).
Aliquots of the glycolipid extract of human tumor samples or of tumor cell lines were separated by TLC {chloroform, methanol, water-65:25:4 (v/v/v)}. The plates were dried and blocked with 1% gelatin in water at 37° C. overnight. They were then washed three times with 50 mM TBS for 5 min and incubated with 0.1 μg/ml toxin for 1 hour at R.T. After further washing with TBS, plates were incubated with mouse monoclonal anti-VT binding domain1 antibody(33) (2 μg/ml) for VT binding domain1 followed by peroxidase-conjugated goat anti-mouse antibody . Finally, the plates were washed with TBS, and toxin binding was visualized with 4-chloro-1-naphthol peroxidase substrate. A similar plate was prepared and sprayed with orcinol for comparison of glycolipid content.

[3] = test system: glycosphingolipid synthesis; test: Inhibition of glycolipid synthesis; format: cell-based
Procedure: as §2

Gb3 of XF-498 cells = test: HPLC analysis of Gb3 fatty acid composition; format: cell-based, human; conditions: butyrate treated XF-498
XF-498 cells [4] = format: cell-based, human
[5] = XF-498 cells after treatment, VT1 TLC overlay

SMILES | effect on XF-498 cell sensitivity to VT1 (in words) (XF-498 cells [1]) | effect on morphology of XF-498 cells (XF-498 cells [2]) | change in slower migrating Gb3 band (Gb3 in XF-498 cells) | effect on butyrate induced VT1 sensitivity of XF-498 cells (XF-498 cells [1]; 27 μM PPMP with 2 mM butyrate, not shown) | concentration able to inhibit glycosphingolipid synthesis without inducing cell death [3] [µM] | effect on butyrate-induced morphological changes (XF-498 cells [2]; PPMP in presence of butyrate) | increase in XF-498 cell sensitivity to VT1 (XF-498 cells [1]; cells cultured in 2 mM sodium butyrate) [fold] | change in slower migrating Gb3 band (Gb3 in XF-498 cells; [5]) | fatty acid content of the slow migrating Gb3 species (Gb3 of XF-498 cells) | effect on intracellular routing of VT1 B (XF-498 cells [4])
CCCCCC(=O)O [capronate] | no effect | no effect | no effect |  |  |  |  |  |  | 
CCCCCCCCCCCCCCCC(=O)NC(CN1CCOCC1)C(O)c1ccccc1 (stereo not drawn) [PPMP, 1-phenyl-2-hexadecanoylamino-3-morpholino-1-propanol] |  | no effect |  | prevented | 27 | prevented the butyrate-induced morphological changes |  |  |  | 
CCCC(=O)[O-].[Na+] [butyrate, sodium butyrate] |  | profound effect |  |  |  |  | 5000 | dramatic, selective increase | markedly increased C16 and decreased C24 fatty acid content | marked change in the intracellular routing
CCC(=O)O [propionate] | increased to a lesser extent | similar, but less significant, morphological change |  |  |  |  |  | selectively increased, but to a lesser extent |  | 
